Where “and” joins values, the source holds several entries; their conditions need not be identical. Equal entries are not always repeated.
Tested on: intraocular pressure in normotensive New Zealand White rabbits
Experiment: Example 3 intraocular pressure after repeated topical and subcutaneous administration (pneumotonometer)
Assay type: in vivo
Design: IOP, individual animal / IOP, group Average: unit not given here
Method: To measure the tolerability and effect of Compound 1 (sodium salt) on intraocular pressure following repeated topical and subcutaneous administration, normotensive New Zealand White rabbits were treated with Compound 1 (sodium salt). Animals were acclimated 1 to 2 times per day to the intraocular pressure (IOP) measurement procedures prior to initiation of the study to determine baseline IOP levels. IOP acclimation was performed in the two weeks prior to study start for a total of 5 days. Animals with unacceptable IOP values were excluded from the study. Prior to taking all IOP measurements, 1 to 2 drops of a 0.5% proparacaine solution were applied to the eye as a topical anesthetic. OP measurements were performed with a pneumotonometer. Test and control formulations were administered to the animals once or twice daily topically into both eyes or subcutaneously starting on Day 1 according to TABLE 20 and TABLE 21 below. PM dosing, where applicable, was performed ˜8 hours after AM dosing. IOP measurements were performed twice (AM and PM) at baseline (prior to the start of dosing), twice (AM and PM) on Days 1 and 7, and once daily (AM) on Days 2-6 and Day 8. Prior to taking all IOP measurements, 1 to 2 drops of a 0.5% proparacaine solution were applied to the eye as a topical anesthetic. IOP measurements were performed with a pneumotonometer. AM IOP measurements were performed 2 hours after AM dosing; the only exceptions were Day 8 AM measurements, which were performed 24 hours after the final dose. PM IOP measurements were performed ˜5 hours (baseline and Day 1) or ˜4 hours (Day 7) after AM IOP measurements, prior to PM dosing, with at least 15 minutes elapsing between anesthetic application for PM IOP measurements and PM dosing. The final round of slit-lamp examinations was performed on Day 8.

[1] = Group 2: 0.45 mg/eye topical sodium salt BID, Day 1, AM, OD
[2] = Group 2: 0.45 mg/eye topical sodium salt BID, Day 1, AM, OS
[3] = Group 2: 0.45 mg/eye topical sodium salt BID, Day 1, PM, OD
[4] = Group 2: 0.45 mg/eye topical sodium salt BID, Day 1, PM, OS
[5] = Group 2: 0.45 mg/eye topical sodium salt BID, Day 2, AM, OD
[6] = Group 2: 0.45 mg/eye topical sodium salt BID, Day 2, AM, OS
[7] = Group 2: 0.45 mg/eye topical sodium salt BID, Day 3, AM, OD
[8] = Group 2: 0.45 mg/eye topical sodium salt BID, Day 3, AM, OS
[9] = Group 2: 0.45 mg/eye topical sodium salt BID, Day 4, AM, OD
[10] = Group 2: 0.45 mg/eye topical sodium salt BID, Day 4, AM, OS
[11] = Group 2: 0.45 mg/eye topical sodium salt BID, Day 5, AM, OD
[12] = Group 2: 0.45 mg/eye topical sodium salt BID, Day 5, AM, OS
[13] = Group 3: 1.2 mg/eye topical sodium salt BID, Day 1, AM, OD
[14] = Group 3: 1.2 mg/eye topical sodium salt BID, Day 1, AM, OS
[15] = Group 3: 1.2 mg/eye topical sodium salt BID, Day 1, PM, OD
[16] = Group 3: 1.2 mg/eye topical sodium salt BID, Day 1, PM, OS
[17] = Group 3: 1.2 mg/eye topical sodium salt BID, Day 2, AM, OD
[18] = Group 3: 1.2 mg/eye topical sodium salt BID, Day 2, AM, OS
[19] = Group 3: 1.2 mg/eye topical sodium salt BID, Day 3, AM, OD
[20] = Group 3: 1.2 mg/eye topical sodium salt BID, Day 3, AM, OS
[21] = Group 3: 1.2 mg/eye topical sodium salt BID, Day 4, AM, OD
[22] = Group 3: 1.2 mg/eye topical sodium salt BID, Day 4, AM, OS
[23] = Group 3: 1.2 mg/eye topical sodium salt BID, Day 5, AM, OD
[24] = Group 3: 1.2 mg/eye topical sodium salt BID, Day 5, AM, OS

SMILES: COC(=O)N[C@@H](Cc1ccccc1)C(=O)N[C@@H](Cc1ccc(NS(=O)(=O)O)cc1)c1csc(-c2cccs2)n1 [Compound 1]
- IOP, group Average [1]: 22.1
- IOP, individual animal [1]: 20.3 and 23.7 and 24.0 and 20.7 and 21.7
- IOP, group Average [2]: 23.3
- IOP, individual animal [2]: 20.7 and 23.3 (2×) and 25.2 and 23.8
- IOP, group Average [3]: 25.5
- IOP, individual animal [3]: 24.8 (2×) and 29.5 and 22.0 and 26.2
- IOP, group Average [4]: 26.1
- IOP, individual animal [4]: 24.8 and 24.2 and 28.8 and 25.3 and 27.2
- IOP, group Average [5]: 21.9
- IOP, individual animal [5]: 22.0 and 22.7 and 25.0 and 18.3 and 21.7
- IOP, group Average [6]: 22.2
- IOP, individual animal [6]: 21.8 and 22.3 and 24.3 and 20.8 and 21.5
- IOP, group Average [7]: 24.0
- IOP, individual animal [7]: 25.0 and 24.2 and 26.0 and 20.8 and 23.8
- IOP, group Average [8]: 24.5
- IOP, individual animal [8]: 25.3 and 23.5 and 26.0 and 23.0 and 24.5
- IOP, group Average [9]: 23.9
- IOP, individual animal [9]: 23.8 and 22.0 and 26.7 and 21.3 and 25.7
- IOP, group Average [10]: 24.3
- IOP, individual animal [10]: 23.0 and 22.7 and 26.3 and 23.5 and 26.2
- IOP, group Average [11]: 25.2
- IOP, individual animal [11]: 28.8 and 22.8 and 28.0 and 20.7 and 25.7
- IOP, group Average [12]: 26.5
- IOP, individual animal [12]: 28.8 and 25.0 and 28.0 and 24.2 and 26.3
- IOP, group Average (Group 2: 0.45 mg/eye topical sodium salt BID, Day 6, AM, OD): 25.5
- IOP, group Average (Group 2: 0.45 mg/eye topical sodium salt BID, Day 6, AM, OS): 25.4
- IOP, group Average (Group 2: 0.45 mg/eye topical sodium salt BID, Day 7, AM, OD): 23.7
- IOP, group Average (Group 2: 0.45 mg/eye topical sodium salt BID, Day 7, AM, OS): 24.5
- IOP, group Average (Group 2: 0.45 mg/eye topical sodium salt BID, Day 7, PM, OD): 25.1
- IOP, group Average (Group 2: 0.45 mg/eye topical sodium salt BID, Day 7, PM, OS): 25.6
- IOP, group Average (Group 2: 0.45 mg/eye topical sodium salt BID, Day 8, AM (24 hours after final dose), OD): 24.9
- IOP, group Average (Group 2: 0.45 mg/eye topical sodium salt BID, Day 8, AM (24 hours after final dose), OS): 25.1
- IOP, group Average [13]: 22.0
- IOP, individual animal [13]: 23.2 and 20.7 and 24.0
- IOP, group Average [14]: 23.2
- IOP, individual animal [14]: 23.8 and 23.0 and 24.7
- IOP, group Average [15]: 24.1
- IOP, individual animal [15]: 23.8 and 22.7 and 24.7
- IOP, group Average [16]: 24.9
- IOP, individual animal [16]: 24.5 and 23.7 and 26.8
- IOP, group Average [17]: 20.8
- IOP, individual animal [17]: 17.5 and 18.5 and 24.3
- IOP, group Average [18]: 21.2
- IOP, individual animal [18]: 19.3 and 20.2 and 24.0
- IOP, group Average [19]: 20.7
- IOP, individual animal [19]: 19.2 and 20.0 and 23.0
- IOP, group Average [20]: 21.2
- IOP, individual animal [20]: 20.0 and 20.8 and 22.7
- IOP, group Average [21]: 22.8
- IOP, individual animal [21]: 23.2 and 19.8 and 23.8 and 24.8
- IOP, group Average [22]: 23.2
- IOP, individual animal [22]: 23.3 and 21.7 and 24.2 and 24.5
- IOP, group Average [23]: 21.5
- IOP, individual animal [23]: 21.5 and 18.8 and 22.3 and 21.2
- IOP, group Average [24]: 22.0
- IOP, individual animal [24]: 22.3 and 19.8 and 23.5 and 20.7
- IOP, group Average (Group 3: 1.2 mg/eye topical sodium salt BID, Day 6, AM, OD): 24.2
- IOP, group Average (Group 3: 1.2 mg/eye topical sodium salt BID, Day 6, AM, OS): 24.7
- IOP, group Average (Group 3: 1.2 mg/eye topical sodium salt BID, Day 7, AM, OD): 21.3
- IOP, group Average (Group 3: 1.2 mg/eye topical sodium salt BID, Day 7, AM, OS): 22.0
- IOP, group Average (Group 3: 1.2 mg/eye topical sodium salt BID, Day 7, PM, OD): 23.7
- IOP, group Average (Group 3: 1.2 mg/eye topical sodium salt BID, Day 7, PM, OS): 24.2
- IOP, group Average (Group 3: 1.2 mg/eye topical sodium salt BID, Day 8, AM (24 hours after final dose), OD): 23.4
- IOP, group Average (Group 3: 1.2 mg/eye topical sodium salt BID, Day 8, AM (24 hours after final dose), OS): 23.9
- IOP, group Average (Group 4: 1.2 mg/eye topical sodium salt QD, Day 1, AM, OD): 21.2
- IOP, group Average (Group 4: 1.2 mg/eye topical sodium salt QD, Day 1, AM, OS): 21.4
- IOP, group Average (Group 4: 1.2 mg/eye topical sodium salt QD, Day 1, PM, OD): 23.1
- IOP, group Average (Group 4: 1.2 mg/eye topical sodium salt QD, Day 1, PM, OS): 23.2
- IOP, group Average (Group 4: 1.2 mg/eye topical sodium salt QD, Day 2, AM, OD): 20.0
- IOP, group Average (Group 4: 1.2 mg/eye topical sodium salt QD, Day 2, AM, OS): 20.1
- IOP, group Average (Group 4: 1.2 mg/eye topical sodium salt QD, Day 3, AM, OD): 20.8
- IOP, group Average (Group 4: 1.2 mg/eye topical sodium salt QD, Day 3, AM, OS): 20.9
- IOP, group Average (Group 4: 1.2 mg/eye topical sodium salt QD, Day 4, AM, OD): 21.6
- IOP, group Average (Group 4: 1.2 mg/eye topical sodium salt QD, Day 4, AM, OS): 22.6
- IOP, group Average (Group 4: 1.2 mg/eye topical sodium salt QD, Day 5, AM, OD): 21.0
- IOP, group Average (Group 4: 1.2 mg/eye topical sodium salt QD, Day 5, AM, OS): 21.2
- IOP, group Average (Group 4: 1.2 mg/eye topical sodium salt QD, Day 6, AM, OD): 22.5
- IOP, group Average (Group 4: 1.2 mg/eye topical sodium salt QD, Day 6, AM, OS): 23.2
- IOP, group Average (Group 4: 1.2 mg/eye topical sodium salt QD, Day 7, AM, OD): 22.6
- IOP, group Average (Group 4: 1.2 mg/eye topical sodium salt QD, Day 7, AM, OS): 23.0
- IOP, group Average (Group 4: 1.2 mg/eye topical sodium salt QD, Day 7, PM, OD): 24.6
- IOP, group Average (Group 4: 1.2 mg/eye topical sodium salt QD, Day 7, PM, OS): 24.7
- IOP, group Average (Group 4: 1.2 mg/eye topical sodium salt QD, Day 8, AM (24 hours after final dose), OD): 22.7
- IOP, group Average (Group 4: 1.2 mg/eye topical sodium salt QD, Day 8, AM (24 hours after final dose), OS): 22.8
- IOP, group Average (Group 5: 10 mg/kg subcutaneous sodium salt BID, Day 1, AM, OD): 22.3
- IOP, group Average (Group 5: 10 mg/kg subcutaneous sodium salt BID, Day 1, AM, OS): 23.6
- IOP, group Average (Group 5: 10 mg/kg subcutaneous sodium salt BID, Day 1, PM, OD): 23.3
- IOP, group Average (Group 5: 10 mg/kg subcutaneous sodium salt BID, Day 1, PM, OS): 23.6
- IOP, group Average (Group 5: 10 mg/kg subcutaneous sodium salt BID, Day 2, AM, OD): 21.5
- IOP, group Average (Group 5: 10 mg/kg subcutaneous sodium salt BID, Day 2, AM, OS): 21.7
- IOP, group Average (Group 5: 10 mg/kg subcutaneous sodium salt BID, Day 3, AM, OD): 20.7
- IOP, group Average (Group 5: 10 mg/kg subcutaneous sodium salt BID, Day 3, AM, OS): 21.3
- IOP, group Average (Group 5: 10 mg/kg subcutaneous sodium salt BID, Day 4, AM, OD): 21.9
- IOP, group Average (Group 5: 10 mg/kg subcutaneous sodium salt BID, Day 4, AM, OS): 22.2
- IOP, group Average (Group 5: 10 mg/kg subcutaneous sodium salt BID, Day 5, AM, OD): 22.4
- IOP, group Average (Group 5: 10 mg/kg subcutaneous sodium salt BID, Day 5, AM, OS): 23.4
- IOP, group Average (Group 5: 10 mg/kg subcutaneous sodium salt BID, Day 6, AM, OD): 24.5
- IOP, group Average (Group 5: 10 mg/kg subcutaneous sodium salt BID, Day 6, AM, OS): 25.0
- IOP, group Average (Group 5: 10 mg/kg subcutaneous sodium salt BID, Day 7, AM, OD): 23.9
- IOP, group Average (Group 5: 10 mg/kg subcutaneous sodium salt BID, Day 7, AM, OS): 23.9
- IOP, group Average (Group 5: 10 mg/kg subcutaneous sodium salt BID, Day 7, PM, OD): 24.1
- IOP, group Average (Group 5: 10 mg/kg subcutaneous sodium salt BID, Day 7, PM, OS): 24.3
- IOP, group Average (Group 5: 10 mg/kg subcutaneous sodium salt BID, Day 8, AM (24 hours after final dose), OD): 24.5
- IOP, group Average (Group 5: 10 mg/kg subcutaneous sodium salt BID, Day 8, AM (24 hours after final dose), OS): 24.0

From patent US10952992B2, “Methods of treating intraocular pressure with activators of Tie-2” (Aerpio Pharmaceuticals, Inc., priority 2015, dated 2021)
